Test [1] concerns C2C12 myotubes. The test can be described thus: Fatty acid oxidation (O2 consumption response to palmitate injection) in C2C12 myotubes / muscle cells. In kind it is cell-based. The conditions noted are these: C2C12 myotubes; sildenafil 1 nM (change from baseline) or leucine 0.5 mM alone. Here is the method: Fatty acid oxidation was measured as O2 consumption response to palmitate injection and is expressed as % change from pre-injection baseline. […] Data expressed as % change from control value. *p=0.013; **p=0.015. The output of the pathways can be measured using one or more methods, disclosed herein and/or known in the art. […] Mitochondrial biogenesis can be measured using a mitochondrial probe by using fluorescence. AMPK activity can be determined by measuring AMPK phosphorylation via an ELISA assay or by Western blot. Sirt1 activity can be determined by measuring deacetylation of a substrate, which can be detected using a fluorophore. […] Treatment with 0.5 mM leucine corresponds to a circulating level of the same molarity achieved by administering about 1,125 mg of dietary leucine to a human subject. Treatment with 0.25 mM leucine corresponds to a circulating level of the same molarity achieved by administering about 300 mg of dietary leucine to a human subject.

The next test has as its system 3T3-L1 adipocytes. Description: Fatty acid oxidation in 3T3-L1 adipocytes / adipocytes. The following applies: 3T3-L1 adipocytes; leucine 0.5 mM or HMB 5 μM alone; p<0.05. In kind it is cell-based. An excerpt:
(§1) Data expressed as % change from control value.*p<0.05. The output of the pathways can be measured using one or more methods, disclosed herein and/or known in the art. […] Mitochondrial biogenesis can be measured using a mitochondrial probe by using fluorescence. AMPK activity can be determined by measuring AMPK phosphorylation via an ELISA assay or by Western blot. Sirt1 activity can be determined by measuring deacetylation of a substrate, which can be detected using a fluorophore. […] Treatment with 0.5 mM leucine corresponds to a circulating level of the same molarity achieved by administering about 1,125 mg of dietary leucine to a human subject. Treatment with 0.25 mM leucine corresponds to a circulating level of the same molarity achieved by administering about 300 mg of dietary leucine to a human subject.

Test [2] concerns C2C12 myotubes. Description: Glucose utilization (extracellular acidification response to glucose injection) in C2C12 myotubes / muscle cells. In kind it is cell-based. The conditions noted are these: C2C12 myotubes; leucine alone. The procedure:
Glucose utilization was measured as extracellular acidification response to glucose injection. *p=0.04. […] Treatment with 0.5 mM leucine corresponds to a circulating level of the same molarity achieved by administering about 1,125 mg of dietary leucine to a human subject. Treatment with 0.25 mM leucine corresponds to a circulating level of the same molarity achieved by administering about 300 mg of dietary leucine to a human subject.

Test [3] concerns C2C12 myotubes. Description: Mitochondrial biogenesis measured as mitochondrial mass in C2C12 myotubes. The following applies: C2C12 cells treated with leucine alone; p<0.05. In kind it is cell-based. Here is the method: as §1, with “The” for “Data expressed as % change from control value.*p<0.05. The”
Test [4] has as its system diet-induced obese mouse. The test can be described thus: Post-prandial glucose, insulin and HOMAIR in the diet-induced obese mouse. In kind it is in vivo. The conditions noted are these: 7 days of treatment, leucine 24 g/kg diet, icariin 25 mg/kg diet. Here is the method: The interactive effects of icariin, a flavanol with specific PDE5 inhibitory properties, on glycemia and insulin sensitivity were assessed in the diet-induced obese mouse, which can be used as a murine model of type 2 diabetes. Male C57/BL6 mice were placed on standard low-fat chow (control; 10% energy from fat) or high fat (60% energy from fat, Research Diets # D12492, Research Diets, Inc, New Brunswick, N.J.) at six weeks of age to induce insulin resistance. […], with 10 animals per group: Low fat diet (LFD) control; High fat diet (HFD) control; HFD+leucine (24 g/kg diet, a two-fold increase over control levels)1 HFD+leucine (24 g/kg diet)+icariin (25 mg/kg diet). […] Mice were fasted overnight (˜16 hours) prior to measurement of fasting blood glucose, insulin and glucose tolerance. Glucose tolerance was determined following measurement of fasting glucose via intraperitoneal administration of glucose (1.2 g/kg body weight) followed by blood glucose measurement at 15, 30, 60, 90 and 120 minutes. Post-prandial glucose was measured within one hour of cessation of eating. Insulin tolerance was measured via an insulin tolerance test (ITT). Food was removed 4-6 hours prior to ITT, and baseline blood glucose measured. The mice were then injected intraperitoneally with insulin (1.2 U/kg body weight) and blood glucose was measured 15, 30, 60, 90 and 120 minutes following insulin injection. The homeostasis model assessment of insulin resistance (HOMAIR) was used as a screening index of changes in insulin sensitivity. HOMAIR is calculated via standard formula from fasting plasma insulin and glucose as follows: HOMAIR=[Insulin (uU/mL)×glucose (mM)]/22.5. The plasma glucose and insulin concentrations were measured using the Glucose Assay Kit from Biovision (Milpitas, Calif.) and the Insulin kit from Millipore (Billerica, Mass.), respectively. CRP levels in plasma were determined by ELISA (CRP: Life Diagnostics, West Chester, Pa.).

The subject of test [5] is diet-induced obese mouse. The test can be described thus: Liver mass in the diet-induced obese mouse. In kind it is in vivo. The conditions noted are these: 6 week treatment. Here is the method: The interactive effects of icariin, a flavanol with specific PDE5 inhibitory properties, on glycemia and insulin sensitivity were assessed in the diet-induced obese mouse, which can be used as a murine model of type 2 diabetes. Male C57/BL6 mice were placed on standard low-fat chow (control; 10% energy from fat) or high fat (60% energy from fat, Research Diets # D12492, Research Diets, Inc, New Brunswick, N.J.) at six weeks of age to induce insulin resistance. […] The animals were then randomized to the following diets for an additional six weeks, with 10 animals per group: Low fat diet (LFD) control; High fat diet (HFD) control; HFD+leucine (24 g/kg diet, a two-fold increase over control levels)1 HFD+leucine (24 g/kg diet)+icariin (25 mg/kg diet). […] A chronic high fat diet is associated with other deleterious consequences. For example, a chronic high fat diet can increase liver mass, likely resulting from fatty accumulation in the liver. Chronic high fat feeding is also associated with chronic inflammation, which can contribute to a number of diseases. To determine the effects of leucine or leucine+icariin administration on additional consequences of high fat feeding, liver mass and C-reactive protein (a biomarker of inflammation) were assessed in all experimental groups at the end of the 6 week study. […] HFD, FIG. 26). […]

Turning to leucine, the figures for the “fatty acid oxidation, agent alone” value in the test with C2C12 myotubes [1] and in the test on 3T3-L1 adipocytes were 73% and 27%, respectively. For the same substance, the “glucose utilization, agent alone” value in the test with C2C12 myotubes [2] was determined as 9.3%. Further, the mitochondrial biomass with C2C12 myotubes [3] was 22.05+/−0.4 AFU/μg protein. The “reduction in post-prandial glucose vs. untreated HFD mice” value with diet-induced obese mouse [4] is “no independent effect”. The “reduction in liver mass vs. untreated HFD mice” value with diet-induced obese mouse [5] is reported as ~10%.

Values taken from patent publication US10646489B2, “Compositions and methods for increasing energy metabolism” (NuSirt Sciences, Inc., priority 2012, dated 2020).
